How the values were obtained:
Prothrombin = Prothrombin (Homo sapiens, UniProt P00734); experiment: Inhibitory activity against human thrombin
Coagulation factor X = Coagulation factor X (Homo sapiens, UniProt P00742); experiment: Inhibition of Coagulation factor Xa
Chain of Coagulation factor X (P00742 41-179 limits assumed): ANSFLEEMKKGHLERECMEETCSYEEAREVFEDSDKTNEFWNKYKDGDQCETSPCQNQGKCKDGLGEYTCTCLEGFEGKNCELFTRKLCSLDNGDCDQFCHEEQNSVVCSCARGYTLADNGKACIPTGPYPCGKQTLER
Chain of Coagulation factor X (P00742 235-488 limits assumed): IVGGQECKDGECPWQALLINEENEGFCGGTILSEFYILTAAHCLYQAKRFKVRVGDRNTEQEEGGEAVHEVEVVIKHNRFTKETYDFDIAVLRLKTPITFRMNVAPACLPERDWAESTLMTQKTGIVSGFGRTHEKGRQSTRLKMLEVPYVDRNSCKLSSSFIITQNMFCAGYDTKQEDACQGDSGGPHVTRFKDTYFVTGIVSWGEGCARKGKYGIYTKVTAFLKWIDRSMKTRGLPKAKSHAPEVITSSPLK

SMILES	Ki (Prothrombin)	Ki (Coagulation factor X)
N=C(N)c1cccc(Cn2c(C(=O)NCC34C[C@H]5C[C@@H](C3)C[C@@H](C4)C5)cc3c(O)cccc32)c1		274 nM
N=C(N)c1cccc(CNC(=O)c2c(Cl)c3ccccc3n2Cc2cccc(C(=N)N)c2)c1	4240 nM	
C[n+]1ccc(CNC(=O)c2cc3cc(N)ccc3n2Cc2cccc(C(=N)N)c2)cc1	57000 nM	100 nM
C[N+](C)(C)c1ccc(CNC(=O)c2cc3cc(Cl)ccc3n2Cc2cccc(C(=N)N)c2)cc1	15800 nM	140 nM
C[N+](C)(C)c1ccc(CNC(=O)c2cc3c(O)cccc3n2Cc2cccc(C(=N)N)c2)cc1	9090 nM	
CC(C)(C)OC(=O)Nc1ccc2c(c1)cc(C(=O)NCc1ccc([N+](C)(C)C)cc1)n2Cc1cccc(C(=N)N)c1	28000 nM	
C[N+](C)(C)c1ccc(CNC(=O)c2cc3ccccc3n2Cc2cccc(C(=N)N)c2)cc1		400 nM
N=C(N)c1ccc(CNC(=O)c2cc3cc(N)ccc3n2Cc2cccc(C(=N)N)c2)cc1	5600 nM	89 nM
Cc1cccc2c1cc(C(=O)NCC1CCC(C(=N)N)CC1)n2Cc1cccc(C(=N)N)c1 (stereo not given)		45 nM
COc1cccc2c1cc(C(=O)NCc1ccc(O)cc1)n2Cc1cccc(C(=N)N)c1		183 nM

Further compounds by falling Ki (Prothrombin), results first:

Ki (Prothrombin)	Ki (Coagulation factor X)	SMILES
4200 nM		N=C(N)c1ccc(CNC(=O)c2cc3c(O)cccc3n2Cc2cccc(C(=N)N)c2)cc1
3900 nM	23 nM	Cc1cccc2c1cc(C(=O)NCc1ccc([N+](C)(C)Cc3ccccc3)cc1)n2Cc1cccc(C(=N)N)c1
3290 nM	26 nM	N=C(N)c1cccc(CNC(=O)c2c(Br)c3ccccc3n2Cc2cccc(C(=N)N)c2)c1
2460 nM		N=C(N)c1cccc(COC(=O)c2cc3ccccc3n2Cc2cccc(C(=N)N)c2)c1
2390 nM		Cc1cccc2c1cc(C(=O)NCc1cccc(C(=N)N)c1)n2Cc1cccc(C(=N)N)c1
2070 nM	50 nM	Cc1cccc2c1c(Br)c(C(=O)NCc1cccc(C(=N)N)c1)n2Cc1cccc(C(=N)N)c1
1710 nM	39 nM	N=C(N)c1cccc(Cn2c(C(=O)NCc3cc(F)cc(C(F)(F)F)c3)cc3c(O)cccc32)c1
1610 nM		Cc1cccc2c1cc(C(=O)NCc1cc(Cl)cc(Cl)c1)n2Cc1cccc(C(=N)N)c1
1420 nM		Cc1cc(C)cc(CNC(=O)c2cc3c(C)cccc3n2Cc2cccc(C(=N)N)c2)c1
1180 nM	99 nM	N=C(N)c1cccc(Cn2c(C(=O)NCc3cc(C(F)(F)F)cc(C(F)(F)F)c3)cc3c(O)cccc32)c1
480 nM		Cc1cc(CNC(=O)c2cc3c(O)cccc3n2Cc2cccc(C(=N)N)c2)cc(C(F)(F)F)c1
290 nM	20 nM	N=C(N)c1cccc(Cn2c(C(=O)NCc3nccc4ccccc34)cc3c(O)cccc32)c1
270 nM	99 nM	N=C(N)c1cccc(Cn2c(C(=O)NCc3cc(Cl)cc(Cl)c3Cl)cc3c(O)cccc32)c1
200 nM	15 nM	Cc1cccc2c1cc(C(=O)NCc1nccc3ccccc13)n2Cc1cccc(C(=N)N)c1
